This passage reports TGI and GI50 results from PubChem BioAssay (NCI).

Values joined by “and” are separate entries in the source; they are usually repeats but may differ in a detail not shown here. Equal entries are not always repeated.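 Growth conditions: 96-well plates. Treatment: test compound, 48 hours, 5 concentrations. Analysis: linear interpolation between bracketing concentrations; unreached endpoints set to highest concentration. GI50 = concentration required for 50% inhibition of growth. At the TGI there is no net growth.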

Some test systems named below: SN12C renal; M14 melanoma; OVCAR-8 ovarian; SK-MEL-5 melanoma; NCI-H460 lung; SW-620 colon; MDA-N; SNB-75 CNS; MDA-MB-231 breast; CAKI-1 renal.
Common to all, as to experiment: inhibition of tumour cell growth, NCI panel, 48 h

Turning to `COc1cc2[nH]c(-c3ccccc3)cc(=O)c2c(OC)c1OC`, the TGI with SN12C renal, with M14 melanoma, with OVCAR-8 ovarian, with SK-MEL-5 melanoma, in the assay with NCI-H460 lung and with SW-620 colon was more than 100 µM throughout. For the same molecule, the TGI in the assay on MDA-N, with SNB-75 CNS and in the assay on MDA-MB-231 breast was more than 100 µM each time.
As for `CCOC(=O)c1c(SCCN2CCOCC2)n(-c2ccccc2)c(=S)n(-c2ccccc2)c1=O`, the TGI in the assay on SN12C renal was more than 100 µM; in the assay on M14 melanoma it was more than 100 µM; with OVCAR-8 ovarian, more than 100 µM; in the assay with SK-MEL-5 melanoma, 90.1 µM; in the assay on NCI-H460 lung it was more than 100 µM; in the assay with SW-620 colon, 41.6 µM. The TGI in the assay on MDA-N, with SNB-75 CNS and with MDA-MB-231 breast was more than 100 µM each time.
Consider `COc1ccc(N2C(=O)C3c4[nH]c5ccccc5c4C4CCCCCCCCCC4C3C2=O)cc1` (configuration not stated), for which the TGI in the assay on SN12C renal, in the assay with M14 melanoma, with OVCAR-8 ovarian, with CAKI-1 renal, with SK-MEL-5 melanoma and with NCI-H460 lung was more than 10 µM each time. The TGI with SW-620 colon, in the assay with MDA-N, in the assay with SNB-75 CNS and in the assay on MDA-MB-231 breast was more than 10 µM throughout.
For the molecule `COc1cc(C(O)c2ccc3c(c2)OCO3)cc(OC)c1OC` (configuration not stated), the TGI in the assay with SN12C renal, in the assay on M14 melanoma, with OVCAR-8 ovarian, in the assay with CAKI-1 renal, with SK-MEL-5 melanoma and in the assay on NCI-H460 lung was more than 100 µM throughout. For the same molecule, the TGI with SW-620 colon, in the assay on MDA-N, in the assay with SNB-75 CNS and with MDA-MB-231 breast was more than 100 µM each time.
For the molecule `Cc1cc(C)nc(NS(=O)(=O)c2ccc(NC(=O)c3cccc4c(NNc5ccc(S(=O)(=O)N=C(N)N)cc5)c5ccccc5nc34)cc2)n1`, the TGI with SN12C renal, in the assay on M14 melanoma, in the assay with OVCAR-8 ovarian, with CAKI-1 renal, in the assay with SK-MEL-5 melanoma and in the assay with NCI-H460 lung was more than 50 µM each time. Besides, the TGI in the assay on SW-620 colon, in the assay on MDA-N, in the assay with SNB-75 CNS and in the assay with MDA-MB-231 breast was more than 50 µM in each case.
On to `O=C(CC(C(=O)c1ccco1)c1ccco1)c1ccco1` (configuration not stated), for which the TGI with SN12C renal, in the assay with M14 melanoma, in the assay on OVCAR-8 ovarian, in the assay with CAKI-1 renal, in the assay with SK-MEL-5 melanoma and in the assay on NCI-H460 lung was more than 100 µM each time. Also, the TGI in the assay on SW-620 colon, in the assay with MDA-N, in the assay on SNB-75 CNS and with MDA-MB-231 breast was more than 100 µM throughout.
For the molecule `CCOC(=O)c1sc2ncnc(N)c2c1C`, the TGI with SN12C renal, with M14 melanoma, with OVCAR-8 ovarian, in the assay on CAKI-1 renal, with SK-MEL-5 melanoma and in the assay with NCI-H460 lung was more than 100 µM each time. In addition, the TGI in the assay on SW-620 colon, in the assay with MDA-N, in the assay on SNB-75 CNS and in the assay with MDA-MB-231 breast was more than 100 µM throughout.
As for `C=CCN1C(=O)/C(=C/c2ccc(C)cc2)N=C1SC1OC(COC(C)=O)C(OC(C)=O)C(OC(C)=O)C1OC(C)=O` (configuration not stated), the TGI with SN12C renal was more than 100 µM; in the assay with M14 melanoma it was more than 100 µM; in the assay on OVCAR-8 ovarian, more than 100 µM; in the assay on CAKI-1 renal, > 100 µM and 63.4 µM; with SK-MEL-5 melanoma it was more than 100 µM; in the assay with NCI-H460 lung, more than 100 µM. In addition, the TGI in the assay with SW-620 colon, with MDA-N, in the assay on SNB-75 CNS and in the assay on MDA-MB-231 breast was more than 100 µM each time. Moreover, the GI50 in the assay on OVCAR-8 ovarian was 5.59 µM and 31.5 µM; in the assay with CAKI-1 renal, 4.88 µM and 11.2 µM; with SK-MEL-5 melanoma, 11.2 µM and 32.9 µM; in the assay with SW-620 colon it was > 100 µM and 39.1 µM; with SNB-75 CNS, 3.7 µM and 20.2 µM.
Consider `O=C1CS(=O)(=O)C(c2cccc(Oc3ccccc3)c2)N1c1cc(Cl)ccc1Cl` (configuration not stated), for which the TGI is 39 µM in the assay with SN12C renal; 43.1 µM in the assay with M14 melanoma; 43.9 µM in the assay on OVCAR-8 ovarian; 31.2 µM in the assay on SK-MEL-5 melanoma; 53.5 µM in the assay on NCI-H460 lung; more than 100 µM in the assay with SW-620 colon. Moreover, the TGI with MDA-N was found to be 35.1 µM; in the assay on SNB-75 CNS, 33.1 µM; in the assay with MDA-MB-231 breast, 38.4 µM.
For the molecule `COc1ccc(OC)c2sc(N3C(=O)/C(=C/c4cccc([N+](=O)[O-])c4)N=C3c3ccccc3)nc12`, the TGI in the assay on SN12C renal, in the assay on M14 melanoma, in the assay with OVCAR-8 ovarian, in the assay on CAKI-1 renal, with SK-MEL-5 melanoma and in the assay on NCI-H460 lung was more than 100 µM throughout. Further, the TGI was 95.2 µM in the assay on SW-620 colon, more than 100 µM with MDA-N, more than 100 µM with SNB-75 CNS and more than 100 µM in the assay with MDA-MB-231 breast.
On to `N#Cc1c(-c2ccccc2)c2c([nH]c1=O)-c1cc([N+](=O)[O-])ccc1CCC2`, for which the TGI was more than 100 µM in the assay with SN12C renal; 93.4 µM in the assay with M14 melanoma; more than 100 µM in the assay with OVCAR-8 ovarian; more than 100 µM with CAKI-1 renal; 76 µM in the assay with SK-MEL-5 melanoma; more than 100 µM in the assay with NCI-H460 lung. Moreover, the TGI in the assay with SW-620 colon is more than 100 µM; with MDA-N, more than 100 µM; in the assay on SNB-75 CNS it was 49.9 µM; with MDA-MB-231 breast it was more than 100 µM.
Turning to `O=[N+]([O-])c1cc(Cl)ccc1Sc1ccccc1`, the TGI with SN12C renal, with M14 melanoma, in the assay with OVCAR-8 ovarian, in the assay on CAKI-1 renal, with SK-MEL-5 melanoma and with NCI-H460 lung was more than 100 µM throughout. Further, the TGI with SW-620 colon is more than 100 µM; in the assay with MDA-N, more than 100 µM; with SNB-75 CNS it was 87 µM; in the assay with MDA-MB-231 breast, more than 100 µM.
For `CC1(C)OC2COC3([C@@H]4OC(C)(C)O[C@@H]4CO)OC(C)(C)OC3C2O1` (some centres not stated), the TGI in the assay on SN12C renal, with M14 melanoma, in the assay with OVCAR-8 ovarian, in the assay with CAKI-1 renal, in the assay with SK-MEL-5 melanoma and with NCI-H460 lung was more than 100 µM throughout. The TGI with SW-620 colon, in the assay with MDA-N, in the assay with SNB-75 CNS and in the assay on MDA-MB-231 breast was more than 100 µM throughout.
